From PubChem BioAssay (NCI)
Several values for one entry are separate records, joined by “and”; a condition that tells them apart may be missing. Identical values can stand only once.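 Tested at 5 concentrations; 48 h exposure; 96-well plates; endpoints linearly interpolated, else capped at highest concentration. GI50 is the concentration that inhibits growth by half. At the TGI there is no net growth.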

Columns and labels:
Assay in all cases: NCI tumour cell line growth inhibition, 48 h
SK-MEL-2 melanoma = system: SK-MEL-2 melanoma
EKVX NSCLC = system: EKVX NSCLC
KM12 colon = system: KM12 colon
UO-31 renal = system: UO-31 renal
SW-620 colon = system: SW-620 colon
HCT-116 colon = system: HCT-116 colon
NCI-H23 lung = system: NCI-H23 lung
DU-145 prostate = system: DU-145 prostate
MDA-MB-231 breast = system: MDA-MB-231 breast
T-47D breast = system: T-47D breast

SMILES	TGI (SK-MEL-2 melanoma)	TGI (EKVX NSCLC) [µM]	TGI (KM12 colon) [µM]	TGI (UO-31 renal) [µM]	TGI (SW-620 colon) [µM]	TGI (HCT-116 colon)	TGI (NCI-H23 lung) [µM]	TGI (DU-145 prostate)	TGI (MDA-MB-231 breast) [µM]	GI50 (DU-145 prostate)	GI50 (SK-MEL-2 melanoma)	GI50 (EKVX NSCLC) [µM]	GI50 (MDA-MB-231 breast)	GI50 (KM12 colon)	GI50 (UO-31 renal) [µM]	GI50 (SW-620 colon)	GI50 (HCT-116 colon)	GI50 (NCI-H23 lung)	GI50 (T-47D breast) [µM]	TGI (T-47D breast) [µM]
N/N=C(\c1nc2ccc(Cl)cc2[nH]c1=O)C(O)c1ccc(Cl)c(Cl)c1 (stereo not given)	> 100 µM	> 100	> 100	> 100	> 100	> 100 µM	> 100	–	–	–	–	–	–	–	–	–	–	–	–	–
O=S(=O)(N=NC=C1c2ccccc2N(O)c2ccccc21)c1ccc(Cl)cc1	> 100 µM	> 100	> 100	> 100	> 100	> 100 µM	> 100	–	–	–	–	–	–	–	–	–	–	–	–	–
Cc1ccc(S(=O)(=O)c2ccc(C)cc2[N+](=O)[O-])cc1	> 100 µM	> 100	> 100	> 100	> 100	> 100 µM	> 100	–	–	–	–	–	–	–	–	–	–	–	–	–
COC(=O)/C(C#N)=C(\N)C(Cl)(Cl)Cl	87.2 µM	17.8	15.8	86.6	1.84	2.25 µM	–	–	–	–	–	–	–	–	–	–	–	–	–	–
CC(=O)NNc1nc(C)c(C(=O)/C=C/c2ccc(Cl)cc2)s1	> 100 µM	> 100	> 100	> 100	> 100	–	> 100	–	–	–	–	–	–	–	–	–	–	–	–	–
CCOC(=O)C1=C(C)N(NC(N)=O)C2(N)N(NC(N)=O)C(C)=C(C(=O)OCC)C12C(=O)OCC (stereo not given)	> 100 µM	> 100	> 100	> 100	> 100	> 100 µM	–	–	–	–	–	–	–	–	–	–	–	–	–	–
Cc1[nH]c(N)nc(=S)c1CCC(=O)O	> 100 µM	> 100	> 100	> 100	> 100	> 100 µM	> 100	> 100 µM	> 100	–	–	–	–	–	–	–	–	–	–	–
CCCCCC[C@@H](C)NC(=O)c1ccc(Nc2nc3ccccc3c3occc23)cc1	7.23 µM	5.04	> 100	21	> 100	11.3 µM	6.59	13.2 µM	> 100	1.92 µM	2.51 µM	1.52	10.2 µM	38 µM	2.87	3.38 µM	1.92 µM	2.06 µM	–	–
COC1CCC(OC)C(C2(C3CC(OC)CCC3OC)OC(=O)c3ccccc32)C1 (stereo not given)	> 100 µM	> 100	> 100	> 100	> 100	> 100 µM	> 100	–	–	–	–	–	–	–	–	–	–	–	–	–
C=C1C(=O)O[C@H]2[C@H]1CC/C(Cn1cc(-c3ccc(F)cc3)nn1)=C\CC[C@@]1(C)O[C@@H]21	3.94 µM	2.97	3.43	2.51	1.54	1.21 µM	3.71	1.99 µM	2.65	0.69 µM	1.83 µM	1.49	1.22 µM	1.7 µM	1.22	0.423 µM	0.295 µM	1.78 µM	–	–
NCCNC(=O)c1cccc2cc3ccccc3nc12	7.81 µM	17.5	20.4	> 28.5	> 34.1	8.06 µM	10.6	–	–	–	–	–	–	–	–	–	–	–	–	–
N#CC(C#N)=Cc1ccc(CP(=O)(O)O)cc1	> 100 µM	> 100	> 100	> 100	> 100	> 100 µM	> 100	–	–	–	–	–	–	–	–	–	–	–	–	–
CC(C)C(=O)c1c(C(F)(F)F)n([O-])c2cc(F)c(F)cc2[n+]1=O	27.8 µM	3.4	4.69	1.75	0.277	–	1.16	1.72 µM	0.77	0.592 µM	0.234 µM	1.53	0.176 µM	1.83 µM	0.568	0.13 µM	–	0.263 µM	1.26	3.96
CCCN(CCC)C(=O)c1nc(N)nc(-c2ccc(OC)cc2)c1-c1ccc(OC)cc1	> 100 µM	> 100	> 100	> 100	> 100	> 100 µM	> 100	–	–	–	–	–	–	–	–	–	–	–	–	–
CCCCc1c2cnccc2c(CCCC)c2c1[nH]c1ccccc12	30.5 µM	36	24.7	29.8	> 100	18.1 µM	36.2	–	–	–	–	–	–	–	–	–	–	–	–	–
CC(=O)OC12c3ccccc3-c3ccccc3C1C(C(=O)O)C2C(=O)O (stereo not given)	> 10 µM	> 10	> 10	> 10	> 10	–	> 10	> 10 µM	> 10	–	–	–	–	–	–	–	–	–	–	> 10
CCOC(=O)C12C(C(=O)OC)=C(C)N(NC(=O)Nc3ccccc3)C1(N)N(NC(=O)Nc1ccccc1)C(C)=C2C(=O)OC (stereo not given)	37.5 µM	> 100	47.8	> 100	> 100	59.4 µM	> 100	–	–	–	–	–	–	–	–	–	–	–	–	–
CC(C(=O)c1ccccc1)C1(O)C(=O)Nc2ccc(Cl)cc21 (stereo not given)	> 100 µM	> 100	> 100	89.7	> 100	> 100 µM	> 100	–	–	–	–	–	–	–	–	–	–	–	–	–

SMILES	TGI (SK-MEL-2 melanoma)	TGI (EKVX NSCLC) [µM]	TGI (KM12 colon) [µM]	TGI (UO-31 renal) [µM]	TGI (SW-620 colon) [µM]	TGI (HCT-116 colon)	TGI (NCI-H23 lung) [µM]	TGI (DU-145 prostate)	TGI (MDA-MB-231 breast) [µM]	GI50 (DU-145 prostate)	GI50 (SK-MEL-2 melanoma)	GI50 (EKVX NSCLC) [µM]	GI50 (MDA-MB-231 breast)	GI50 (KM12 colon)	GI50 (UO-31 renal) [µM]	GI50 (SW-620 colon)	GI50 (HCT-116 colon)	GI50 (NCI-H23 lung)	GI50 (T-47D breast) [µM]	TGI (T-47D breast) [µM]
COc1ccc(C(=O)CC2=Nc3nnc(CCCCCCCc4nnc5n4C(=O)C(CC(=O)c4ccc(OC)cc4)=N5)n3C2=O)cc1	–	> 100	> 100	> 100	> 100	> 100 µM	> 100	–	–	–	–	–	–	–	–	–	–	–	–	–
COc1cc2c(cc1OC)C1Cc3ccc(OC)c(OC)c3C[N+]1([O-])CC2 (stereo not given)	> 100 µM	> 100	> 100	> 100	> 100	> 100 µM	> 100	–	–	–	–	–	–	–	–	–	–	–	–	–
C1CN(P2(N3CC3)=NP(N3CC3)(N3CC3)=NP(N3CC3)(N3CC3)=N2)CCO1 (stereo not given)	> 100 µM	> 100	> 100	> 100	> 100	> 100 µM	> 100	–	–	–	–	–	–	–	–	–	–	–	–	–
O=C1CNC(=O)c2[nH]cnc2N1	–	> 100	> 100	> 100	> 100	–	> 100	–	–	–	–	–	–	–	–	–	–	–	–	–
CC1CC(C)C2OC2(C)C[C@H](C)C(=O)NC(C)C(=O)N(C)[C@H](Cc2c(Br)[nH]c3ccccc23)C(=O)N[C@@H](c2ccc(O)cc2)CC(=O)O1 (stereo not given in full)	0.876 µM	75.8	> 100	27.3	> 90.2	> 33.1 µM	> 40.4	–	–	–	–	–	–	–	–	–	–	–	–	–
COc1ccc2c(c1)NC1(O)c3ccccc3C(=O)C21O (stereo not given)	–	–	> 100	> 100	> 100	> 100 µM	> 100	–	–	–	–	–	–	–	–	–	–	–	–	–
COC(=O)C1CC(OC(C)=O)C=C2C(=O)CCC21 (stereo not given)	79.9 µM	–	31.6	80.3	39.4	29.8 µM	–	–	–	–	–	–	–	–	–	–	–	–	–	–
CC(C)(C)N/N=C(\C(=O)Nc1nc(=S)[nH][nH]1)C1C(=O)Nc2ccccc2S1=O (stereo not given)	> 100 µM	> 100	> 100	> 100	> 100	> 100 µM	> 100	–	–	–	–	–	–	–	–	–	–	–	–	–
COc1cc(NS(C)(=O)=O)ccc1NCc1c2ccccc2nc2ccccc12	> 100 µM	> 100	> 100	> 100	> 100	36.6 µM	> 100	–	–	–	–	–	–	–	–	–	–	–	–	–
Cc1nc(N)nc(N)c1CCCc1ccccc1	> 100 µM	> 100	> 100	> 100	> 100	> 100 µM	> 100	–	–	–	–	–	–	–	–	–	–	–	–	–
O=C(Nc1ccccc1-c1nn(CN2CCNCC2)c(=S)n(CN2CCNCC2)c1=O)C(F)(F)F	33.5 µM	32.2	40.7	32.6	22.2	32.5 µM	32.6	–	–	–	–	–	–	–	–	–	–	–	–	–
Cc1cc(C)c(C(=O)O)c(SSc2cc(C)cc(C)c2C(=O)O)c1	> 100 µM	> 100	> 100	> 100	> 100	–	> 100	–	–	–	–	–	–	–	–	–	–	–	–	–
C=CCC1(C(=O)OC(C)(C)C)C(OC)=C(C(=O)OC(C)(C)C)C2C1C(C(=O)OC(C)(C)C)=C(OC)C2(CC=C)C(=O)OC(C)(C)C (stereo not given)	> 100 µM	> 100	> 100	> 100	> 100	–	> 100	–	–	–	–	–	–	–	–	–	–	–	–	–
CC1=NOC(=O)/C1=C/c1ccc([N+](=O)[O-])cc1	> 100 µM	> 100	> 100	> 100	> 100	> 100 µM	> 100	–	–	–	–	–	–	–	–	–	–	–	–	–
COC(=O)Nc1nc2ccc(C(=O)c3ccccc3)cc2[nH]1	22.8 µM and > 100 µM	> 100	–	> 100	> 100	50.8 µM and > 36.2 µM	> 100	22.6 µM and 3 µM	> 100	1.06 µM and 0.259 µM	0.473 µM and 0.583 µM	–	1.05 µM and 1.25 µM	0.402 µM and 0.13 µM	–	0.41 µM and 0.259 µM	0.47 µM and 0.353 µM	0.747 µM and 1.13 µM	–	–
Cc1cccc(C)c1N1C(=O)C(=O)C(c2nc3ccccc3s2)/C(=N/NC(=O)c2ccccc2O)C1=O (stereo not given)	> 100 µM	> 100	> 100	22.4	> 100	> 79.5 µM	39.1	–	–	–	–	–	–	–	–	–	–	–	–	–
C/C(CC(=O)Nc1ccccc1C)=N/NS(=O)(=O)c1ccc(C)cc1	> 100 µM	> 100	> 100	> 100	> 100	> 100 µM	> 100	–	–	–	–	–	–	–	–	–	–	–	–	–
CCOc1ccc(NCC2CC/C(=C\c3ccccc3OC)C2=O)cc1 (stereo not given)	35.2 µM	31.9	9.1	26.2	14.3	14.5 µM	34.7	–	–	–	–	–	–	–	–	–	–	–	–	–
